In PMC11758220, “Identification of a Privileged Scaffold for Inhibition of Sterol Transport Proteins through the Synthesis and Ring Distortion of Diverse, Pseudo-Natural Products” (ACS Central Science, 2025):

Molecular target: T1, STARD4 (Homo sapiens, UniProt Q96DR4, C75S)
T1 construct: STARD4(2-205; C75S); made in house; host or cells: E. coli BL21(DE3)
T1 sequence (Q96DR4 2-205 C75S): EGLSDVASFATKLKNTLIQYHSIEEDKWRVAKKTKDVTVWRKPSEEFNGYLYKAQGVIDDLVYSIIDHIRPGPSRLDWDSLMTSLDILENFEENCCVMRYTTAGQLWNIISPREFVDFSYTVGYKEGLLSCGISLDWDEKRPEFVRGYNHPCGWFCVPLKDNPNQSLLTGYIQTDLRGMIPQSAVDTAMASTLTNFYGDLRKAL
Assay: Differential scanning fluorimetry (DSF), STARD4
Type: binding
Conditions: for ΔTm at 10 µM / STARD4 (DSF) ΔTm: single dose, Dose = 10 µM; for Kd: apparent Kd, mean of three experiments run in technical duplicates, read-out: STARD4 Kd,app (DSF); for STARD4 (DSF) ΔTmmax: maximal thermal shift
From the text: Protein expression constructs
Human ASTER domains of Aster-A(359-547), -B(364-552) and -C(318-504) were subcloned into a pGEX-6p-2rbs vector, thus introducing the cloning artifact ‘GPLGS’.3 The pGEX-6P-1-GST-OSBP(377- […]
a gift from James H. Hurley (University of California).4 The pHIS_2His6_Thrombin_STARD4(2-205;C75S) plasmid was a gift from Young Jun Im (Chonnam National University).5 STARD5A was a gift from Nicola Burgess-Brown (Addgene plasmid #42392; http://n2t.net/addgene:42392; […]
Protein expression and purification […]
vectors including an N-terminal PreScission-cleavable glutathione S-transferase (GST)-tag were expressed in Escherichia coli (E. coli) OverExpress C41 in Terrific Broth (TB) medium for 16 h at 18 °C after the induction with 0.1 mM isopropyl β-D-1-thiogalactopyranoside (IPTG). Cells were harvested at 3500 × g for 15 minutes and lysed by sonication in buffer containing 50 mM HEPES pH 7.5, 300 mM NaCl, 10 %v/v glycerol, 5 mM dithiothreitol (DTT), 0.1 %v/v Triton X-100 and protease inhibitor mix HP plus (Serva). The lysate was purified by affinity chromatography on a GSTrap FF column (Cytiva) using an ÄKTA Start (Cytiva) in buffer containing 50 mM HEPES pH 7.5, 300 mM NaCl, 10 %v/v glycerol, 5 mM DTT and 0.01 %v/v Triton X-100. The GST-tag was cleaved overnight on the column at 4 °C. The Aster sterol binding domains were further purified by size-exclusion chromatography (SEC) on a HiLoad 16/600 Superdex 75 pg (Cytiva) in buffer containing 20 mM HEPES pH 7.5, 300 mM NaCl, 10 %v/v […]
STARD5(6-213) harboring an N-terminal His6-Tag were expressed in E. coli BL21(DE3) in Luria-Bertani Broth (LB) medium for approximately 16 h at 18 °C after induction with 0.15 mM IPTG. Cells were harvested at 3500 × g for 15 minutes and lysed by sonication in buffer containing 50 mM HEPES pH 7.5, 150 mM NaCl, 5 %v/v glycerol, 5 mM DTT, 0.1 %v/v Triton X -100 and ethylenediaminetetraacetic acid (EDTA)-free protease inhibitor cocktail (Sigma-Aldrich). The cleared lysate was purified by affinity chromatography on a Ni-NTA Superflow Cartridge (Qiagen) using an ÄKTA Start (Cytiva) in buffer containing 50 mM HEPES pH 7.5, 150 mM NaCl, 5 %v/v glycerol, 5 mM DTT. START domains were eluted by using elution buffer containing 50 mM HEPES pH 7.5, 150 mM NaCl, 5 %v/v glycerol, 5 mM DTT and 500 mM imidazole. Proteins were further purified by SEC on a HiLoad 16/600 Superdex 75 pg (Cytiva) in buffer containing 20 mM HEPES pH 7.5, 150 mM NaCl, 5 %v/v glycerol and 2 mM DTT.
The ORP domain of human OSBP(377-807) in the pGEX-6p-1 vector with an N-terminal PreScission-cleavable GST-tag was expressed in E. coli OverExpress C41 in LB medium for 16 h at 18 °C after induction with 0.1 mM IPTG. Cells were harvested at 3500 × g for 15 minutes and lysed by sonication in buffer containing 20 mM HEPES pH 7.5, 300 mM NaCl, 10 %v/v glycerol, 5 mM DTT, 0.1 %v/v Triton X-100 and EDTA-free protease inhibitor cocktail (Sigma-Aldrich). The cleared lysate was purified by affinity chromatography on a GSTrap HF column (Cytiva) using an ÄKTA Start (Cytiva) in buffer containing 20 mM HEPES pH 7.5, 300 mM NaCl, 10 %v/v glycerol, 5 mM DTT. OSBP(377 -807) was eluted by using elution buffer containing 20 mM HEPES pH 7.5, 300 mM NaCl, 10 %v/v glycerol, 5 mM DTT and 10 mM reduced glutathione. Proteins were further purified by SEC on a HiLoad 16/600 Superdex 75 pg (Cytiva) using an ÄKTA Explorer (Cytiva) in buffer containing 20 mM HEPES pH 7.5, 150 mM NaCl, 10 %v/v glycerol and 2 mM DTT.
The ORP domains of human ORP1(534-950) in pET24b(+) and ORP2(49-480) in the pET24b(+) vector including an N-terminal His6-Tag were expressed in E. coli BL21(DE3) in TB medium for approximately 16 h at 18 °C after induction with 0.1 mM IPTG. Cells were collected at 3500 × g for 15 minutes and lysed by sonification in buffer containing 10 mM Tris-HCl pH 8, 300 mM NaCl, 5 % glycerol, 2 mM DTT, 0.1 % Triton X-100 and EDTA-free protease inhibitor cocktail (Sigma-Aldrich). The cleared […]

Compound	ΔTm at 10 µM	Kd	STARD4 (DSF) ΔTmmax	STARD4 (DSF) ΔTm
Cc1cc(C)c2c(c1)NC(=O)[C@@]1(C)CC[C@@H](O)C[C@H]1CCC2=O [Compound 11g]	0.464 °C			
Cc1ccc2[nH]c3c(c(=O)c2c1)C[C@@H]1C[C@H](O)CC[C@]31C [Compound 12]	-0.0238 °C			
Cc1ccc2c(c1)[C@]1(O)CC[C@@H]3C[C@H](O)CC[C@]3(C)C1=N2 [Compound 14a]	0.8 °C			
COc1ccc2c(c1)[C@]1(O)CC[C@@H]3C[C@H](O)CC[C@]3(C)C1=N2 [Compound 14b]	-0.1 °C			
Cc1cc(C)c2c(c1)N=C1[C@@]2(O)CC[C@@H]2C[C@H](O)CC[C@]12C [Compound 14c]	-0.0123 °C			
C[C@]12CC[C@@H]3C[C@H]1CC[C@@]21C(=Nc2ccccc21)O3 [Compound 15a]	0.9 °C			
CC12CCC3CC1CCC21C(=Nc2ccc(Cl)cc21)O3 (stereo not shown) [Compound 15c]	1.5 °C			
C[C@]12CC[C@@H]3C[C@H]1CC[C@@]21C(=Nc2ccc(F)cc21)O3 [Compound 15d]	1.3 °C			
Cc1ccc2c(c1)[C@@]13CC[C@@H]4C[C@@H](CC[C@@]41C)OC3=N2 [Compound 15e]	2.1 °C	6.18 µM	2.4 °C	
COc1ccc2c(c1)[C@@]13CC[C@@H]4C[C@@H](CC[C@@]41C)OC3=N2 [Compound 15f]	2.1 °C			
C[C@]12CC[C@@H]3C[C@H]1CC[C@@]21C(=Nc2ccc(C(F)(F)F)cc21)O3 [Compound 15g]	1 °C			
CC12CCC3CC1CCC21C(=Nc2c(Br)cc(C(F)(F)F)cc21)O3 (stereo not shown) [Compound 15h]	0.106 °C			
C[C@]12CC[C@@H]3C[C@H]1CC[C@@]21C(=Nc2c(F)cc(Cl)cc21)O3 [Compound 15i]	1 °C			
CC12CCC3CC1CCC21C(=Nc2ccc(NCc4ccccc4)cc21)O3 (stereo not shown) [Compound 19b]	3.7 °C	3.48 µM	7.3 °C	
CCCCCNc1ccc2c(c1)[C@@]13CC[C@@H]4C[C@@H](CC[C@@]41C)OC3=N2 [Compound 19c]	4.5 °C	4.06 µM	7.2 °C	
CCCCN(C)c1ccc2c(c1)[C@@]13CC[C@@H]4C[C@@H](CC[C@@]41C)OC3=N2 [Compound 19d]	3.9 °C	4.53 µM	5.2 °C	
CC(C)(C)OC(=O)N1CCN(c2ccc3c(c2)C24CCC5CC(CCC52C)OC4=N3)CC1 (stereo not shown) [Compound 19e]	6.6 °C	2.86 µM	8.9 °C	
C[C@]12CC[C@@H]3C[C@H]1CC[C@@]21C(=Nc2ccc(N(Cc4ccccc4)c4ccc5c(c4)[C@@]46CC[C@@H]7C[C@@H](CC[C@@]74C)OC6=N5)cc21)O3 [Compound 20a]				0.0479 °C
CCCCCN(c1ccc2c(c1)[C@@]13CC[C@@H]4C[C@@H](CC[C@@]41C)OC3=N2)c1ccc2c(c1)[C@@]13CC[C@@H]4C[C@@H](CC[C@@]41C)OC3=N2 [Compound 20b]				-0.0184 °C
C[C@]12CC[C@@H]3C[C@H]1CC[C@@]21C(=Nc2ccc(-c4ccccc4)cc21)O3 [Compound 21a]	0.8 °C			
COc1ccc(-c2ccc3c(c2)C24CCC5CC(CCC52C)OC4=N3)cc1 (stereo not shown) [Compound 21b]	0.548 °C		1.2 °C	
CC12CCC3CC1CCC21C(=Nc2ccc(N4CCNCC4)cc21)O3 (stereo not shown) [Compound 22]	0.0199 °C			
C[C@]12CC[C@@H]3C[C@H]1CC[C@@]21C(=Nc2ccc(N4CCN(Cc5ccncc5)CC4)cc21)O3 [Compound 24]	3 °C	6.4 µM	4.2 °C	
CCN(CC)CCO[C@H]1CC[C@@]2(C)C(=CC[C@@H]3[C@@H]2CC[C@]2(C)C(=O)CC[C@@H]32)C1 [Compound U18666A, reference compound]				0.6 °C
